According to patent US11793746B2, “Intense skin hydration systems and methods” (priority 2020, dated 2023):

Key:
[1] = system: PGE2 synthesis by 3T3 fibroblasts; experiment: Inhibition of PGE2 synthesis by 3T3 fibroblasts (ELISA); assay type: cell-based; details: for [PGE2]: 24 h
From the text: This Example establishes the anti-inflammatory potential of GC-100 by measuring the inhibition of PGE2 synthesis by 3T3 fibroblasts in cell culture.
The cells are nourished in a medium enriched with arachidonic acid which leads to increased secretion of eicosanoids into the medium.
The formation of prostaglandin PGE2 will be followed as a marker of eicosanoid synthesis, because it is a stable molecule secreted preferentially by 3T3 fibroblasts. The anti-inflammatory potential of an active ingredient may then be investigated by following the decrease in secretion of PGE2 in the culture medium.
Quantification of PGE2 will be achieved using an enzyme-linked immunosorbant assay (ELISA). In principle, the PGE2 expressed by the cells in culture medium will compete with enzyme-linked PGE2 for available antibody, which is a constant. The concentration of enzyme-linked PGE2 is also constant and quantified prior to testing. The enzyme linked to PGE2 prior to testing is acetylcholinesterase. Since the quantity of PGE2 expressed by 3T3 cells in culture will vary based on the concentration of GC-100 present, the amount of antibody available to bind to the enzyme-linked PGE2 versus that produced by the 3T3 cells assumes an inverse relationship that is dependent on Brownian motion. After eliminating unreacted PGE2 through washing, substrate is added that binds to the enzyme-PGE2-antibody complex to generate a yellow color that is strongly evident using spectrophotometer set at 412 nm. The amount of light transmitted through the test sample is directly proportional to the intensity of the color change and, consequently, to the concentration of PGE2-enzyme-antibody complex.
Create a mother solution (solution #1) containing complete DMEM, alcohol, and 2×10^5 3T3 fibroblasts for plating onto 25 cm^2 culture dishes. Using a compounding dilution technique, prepare the following solutions, using 5 mL of media per plate: • Solution #2: Solution #1 plus arachidonic acid (10^−3% P/V) • Solution #3: Solution #2 plus indomethacin (0,1,10^−3% P/V) • Solution #4: Solution #2 plus GC-100 0.5% • Solution #5: Solution #2 plus GC-100 1.0%
Incubate all preparations for 24 hours at 37° C. Recover the supernatant media, and if needed deep freeze it at −20° C. before quantification. Count the number of surviving cells using a coulter counter. Establish a calibration curve of the quantity of PGE2. Quantify the supernatant media using an enzyme-linked immunosorbant assay kit specific for PGE2 (Cayman), using a Dynotech microplate reader (MR500) with a filter set at 412 nm. Calculate the % inhibition of PGE2 synthesis. The results are shown in Table 4 and FIG. 10, which is a graph showing mean suppression of PGE2 concentration in test media comprising indomethacin or GC-100.

[2] = molecular target: T1, tyrosinase (Mus musculus, UniProt P11344); experiment: Tyrosinase activity in B16 melanoma cells; assay type: cell-based
T1 construct: endogenous in cells; host or cells: B16 melanoma cells
T1 sequence (P11344 19-533): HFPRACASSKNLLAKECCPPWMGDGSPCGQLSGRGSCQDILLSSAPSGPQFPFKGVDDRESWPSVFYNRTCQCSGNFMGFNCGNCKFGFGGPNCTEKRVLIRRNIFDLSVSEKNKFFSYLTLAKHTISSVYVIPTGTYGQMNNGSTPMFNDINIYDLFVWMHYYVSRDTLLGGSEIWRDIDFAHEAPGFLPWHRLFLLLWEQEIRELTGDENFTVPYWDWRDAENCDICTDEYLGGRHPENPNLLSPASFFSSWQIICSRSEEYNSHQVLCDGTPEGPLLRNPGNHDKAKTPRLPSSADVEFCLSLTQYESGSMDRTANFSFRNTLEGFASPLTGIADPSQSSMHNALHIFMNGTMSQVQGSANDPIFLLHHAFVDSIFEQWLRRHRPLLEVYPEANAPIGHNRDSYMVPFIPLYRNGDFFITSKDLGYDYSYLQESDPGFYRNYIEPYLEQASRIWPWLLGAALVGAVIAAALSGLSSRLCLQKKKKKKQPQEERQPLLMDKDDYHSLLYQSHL
Experimental: This Example establishes and quantifies the effect of GC-100 on tyrosinase synthesis in B16 melanoma cells.
It has been reported that tyrosinase in synthesized in B16 melanoma cells within 24 hours of plating. On the basis of these reports, B16 melanoma cells were used to evaluate the inhibitory effects of GC-100 on tyrosinase synthesis. As an indication of tyrosinase synthesis, tyrosinase activity in B16 melanoma cells was measured in addition to the amount of melanin synthesized per cell.
B16 melanoma cells (5.0′×10^4) were incubated in a 96-well microplate supplemented with DMEM and 5% fetal calf serum at 37° C. for 24 hours. Incubation was continued for an additional 24 hours at 37° C. in DMEM supplemented with GC-100 at either 250 μg/mL, 500 μg/mL, or 1000 μg/mL. After washing cells with PBS twice, the cells were lysed with 50 μL of phosphate buffer (0.05 mM, pH 6.8) containing 0.1% Triton-X, and incubated at 37° C. for 30 minutes. Then 100 μL of phosphate buffer (0.1 mM, pH 6.8) containing 0.1% DOPA was added to the lysate and incubated at 37° C. for 3 hours. The resultant melanin content and protein content of the lysate were then quantified.
GC-100 selected for examination was quantitatively evaluated regarding its inhibitory activity of melanogenesis in B16 melanoma cells. B16 melanoma cells were seeded into a 60 mm diameter dish at density of 1.5′×10^5 cells/dish and incubated at 37° C. in DMEM supplemented with 10% FCS and 40 mM sodium lactate. After 4 days, the medium was exchanged to DMEM supplemented with 5% FCS and the aforementioned concentrations of GC-100 and cultured at 37° C. The results are shown in Table 5 and FIG. 11, which is a graph showing tyrosinase activity as a function of GC-100 concentration.

[3] = DMEM + AA + 0.5% GC-100, column A
[4] = DMEM + AA + 0.5% GC-100, column B
[5] = DMEM + AA + 0.5% GC-100, column C
[6] = DMEM + AA + 1% GC-100, column A
[7] = DMEM + AA + 1% GC-100, column B
[8] = DMEM + AA + 1% GC-100, column C

H-Lys-Pro-NH2 [GC-100]
% change of PGE2 vs DMEM + AA, MEAN ([1]; DMEM + AA + 0.5% GC-100): −13%
% change of PGE2 vs DMEM + AA [1, 3]: −10.5%
[PGE2] [1, 3]: 2.81 pg/mL
% change of PGE2 vs DMEM + AA [1, 4]: −19.7%
[PGE2] [1, 4]: 2.41 pg/mL
% change of PGE2 vs DMEM + AA [1, 5]: −8.7%
[PGE2] [1, 5]: 2.62 pg/mL
% change of PGE2 vs DMEM + AA, MEAN ([1]; DMEM + AA + 1% GC-100): −23.9%
% change of PGE2 vs DMEM + AA [1, 6]: −23.9%
[PGE2] [1, 6]: 2.39 pg/mL
% change of PGE2 vs DMEM + AA [1, 7]: −27.7%
[PGE2] [1, 7]: 2.17 pg/mL
% change of PGE2 vs DMEM + AA [1, 8]: −20.2%
[PGE2] [1, 8]: 2.29 pg/mL
mean decrease of PGE2 expression below untreated control ([1]; GC-100 1%): 24%
Tyrosinase activity (% of untreated control) ([2]; GC-100 250 μg/mL): 57.3 ± 12%
Tyrosinase activity (% of untreated control) ([2]; GC-100 500 μg/mL): 34.1 ± 14%
Tyrosinase activity (% of untreated control) ([2]; GC-100 1000 μg/mL): 6.6 ± 14.8%
